Source: PubChem BioAssay (NCI)
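Grown in 96-well plates, cells were treated for 48 hours with each compound at five concentrations. Insufficient inhibition: endpoint recorded as highest concentration tested. TGI denotes the concentration required for complete inhibition of growth.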

Tests used:
Test in all cases: growth of human tumour cells (NCI), 48 h
[1] = test system: TK-10 renal
[2] = test system: IGROV1 ovarian
[3] = test system: HCC-2998 colon
[4] = test system: MOLT-4 leukemia
[5] = test system: 786-0 renal
[6] = test system: SN12C renal
[7] = test system: OVCAR-3 ovarian
[8] = test system: UO-31 renal
[9] = test system: ACHN renal
[10] = test system: HOP-92 NSCLC

**Q.** CC#CC(O)(C(=O)OC1CC(C)N(C)C(C)(C)C1)C1CCCC1 (stereo unspecified) was tested. Which TGI [1] did it give?
**A.** Its TGI is > 100 µM.

**Q.** And the TGI [2]?
**A.** The TGI was > 100 µM.

**Q.** And the TGI [3]?
**A.** Its TGI is > 100 µM.

**Q.** What about the TGI [4] of the same compound?
**A.** Its TGI is > 100 µM.

**Q.** And the TGI [5]?
**A.** Its TGI is > 100 µM.

**Q.** What about the TGI [6] of the same compound?
**A.** The TGI was > 100 µM.

**Q.** And the TGI [7]?
**A.** The TGI was > 100 µM.

**Q.** And the TGI [8]?
**A.** The TGI was > 100 µM.

**Q.** And the TGI [9]?
**A.** Its TGI is > 100 µM.

**Q.** How did the TGI [1] turn out when Cc1c(-c2ccccc2)[nH]n(C2=NCCN2)c1=O was run?
**A.** Its TGI is > 100 µM.

**Q.** What about the TGI [2] of the same compound?
**A.** Its TGI is > 100 µM.

**Q.** And the TGI [10]?
**A.** Its TGI is > 100 µM.

**Q.** And the TGI [4]?
**A.** The TGI was > 100 µM.

**Q.** And the TGI [5]?
**A.** The TGI was > 100 µM.

**Q.** And the TGI [7]?
**A.** The TGI was > 100 µM.

**Q.** What about the TGI [8] of the same compound?
**A.** The TGI was > 100 µM.

**Q.** And the TGI [9]?
**A.** Its TGI is > 100 µM.

**Q.** With C/C(=C\CO)CC/C=C(\C)CNc1ccc([N+](=O)[O-])cc1 as the compound, how does the TGI [1] read?
**A.** Its TGI is 46.7 µM.

**Q.** And the TGI [2]?
**A.** The TGI was > 100 µM.

**Q.** What about the TGI [4] of the same compound?
**A.** Its TGI is 18.4 µM.

**Q.** And the TGI [5]?
**A.** The TGI was > 100 µM.

**Q.** And the TGI [6]?
**A.** Its TGI is > 100 µM.

**Q.** And the TGI [7]?
**A.** Its TGI is 48.2 µM.

**Q.** And the TGI [8]?
**A.** Its TGI is 45.9 µM.

**Q.** What about the TGI [9] of the same compound?
**A.** The TGI was > 100 µM.

**Q.** For Clc1ccc(/C(=C\c2ccccc2)Cn2ccnc2)cc1, which TGI [1] is on record?
**A.** The TGI was > 100 µM.

**Q.** And the TGI [2]?
**A.** The TGI was > 100 µM.

**Q.** And the TGI [10]?
**A.** Its TGI is 39.4 µM.

**Q.** What about the TGI [3] of the same compound?
**A.** Its TGI is 48.8 µM.

**Q.** What about the TGI [4] of the same compound?
**A.** Its TGI is > 100 µM.

**Q.** And the TGI [5]?
**A.** Its TGI is 38.5 µM.

**Q.** What about the TGI [6] of the same compound?
**A.** Its TGI is 89.2 µM.

**Q.** And the TGI [8]?
**A.** Its TGI is 32.4 µM.

**Q.** And the TGI [9]?
**A.** Its TGI is 67.6 µM.

**Q.** How did the TGI [1] turn out when COc1ccc(NC(C)c2ccncc2)cc1 (stereo unspecified) was run?
**A.** The TGI was > 100 µM.

**Q.** What about the TGI [10] of the same compound?
**A.** Its TGI is > 100 µM.

**Q.** And the TGI [3]?
**A.** Its TGI is > 100 µM.

**Q.** And the TGI [4]?
**A.** The TGI was > 100 µM.

**Q.** And the TGI [5]?
**A.** The TGI was > 100 µM.

**Q.** And the TGI [6]?
**A.** The TGI was > 100 µM.

**Q.** And the TGI [7]?
**A.** The TGI was > 100 µM.

**Q.** And the TGI [8]?
**A.** The TGI was > 100 µM.

**Q.** What about the TGI [9] of the same compound?
**A.** The TGI was > 100 µM.

**Q.** Which TGI [1] does the source give for c1ccc(C2CC(=NC3CCCCC3)Nc3ccccc3N2)cc1 (stereo unspecified) here?
**A.** The TGI was > 100 µM.

**Q.** What about the TGI [2] of the same compound?
**A.** Its TGI is > 100 µM.

**Q.** What about the TGI [4] of the same compound?
**A.** The TGI was > 100 µM.

**Q.** What about the TGI [5] of the same compound?
**A.** The TGI was > 100 µM.

**Q.** What about the TGI [6] of the same compound?
**A.** The TGI was > 100 µM.

**Q.** And the TGI [7]?
**A.** Its TGI is > 100 µM.

**Q.** What about the TGI [8] of the same compound?
**A.** The TGI was > 100 µM.

**Q.** What about the TGI [9] of the same compound?
**A.** The TGI was > 100 µM.

**Q.** Which TGI [1] does the source give for COc1ccc(/C=N/n2c(C)nc3c(sc(=S)n3-c3ccccc3)c2=O)cc1 here?
**A.** The TGI was > 100 µM.

**Q.** What about the TGI [2] of the same compound?
**A.** The TGI was > 100 µM.

**Q.** And the TGI [10]?
**A.** The TGI was > 100 µM.

**Q.** And the TGI [3]?
**A.** The TGI was > 100 µM.

**Q.** What about the TGI [4] of the same compound?
**A.** The TGI was > 100 µM.

**Q.** And the TGI [7]?
**A.** The TGI was > 100 µM.

**Q.** What about the TGI [8] of the same compound?
**A.** Its TGI is > 100 µM.

**Q.** And the TGI [9]?
**A.** The TGI was > 100 µM.

**Q.** What does the source list for O=C1OC(c2ccccc2)N(C(=O)c2ccccc2)C1Cc1ccc(OCc2ccccc2)cc1 (stereo unspecified)?
**A.** TGI [1]: > 100 µM; TGI [2]: > 100 µM; TGI [10]: 53.4 µM; TGI [3]: > 100 µM; TGI [5]: > 100 µM; TGI [6]: > 100 µM; TGI [8]: > 100 µM; TGI [9]: > 100 µM

**Q.** Which TGI [1] does the source give for O=C1C(C(O)(C(F)(F)F)C(F)(F)F)CCC1C(O)(C(F)(F)F)C(F)(F)F (stereo unspecified) here?
**A.** Its TGI is > 100 µM.

**Q.** And the TGI [2]?
**A.** Its TGI is > 86 µM.

**Q.** And the TGI [10]?
**A.** The TGI was 0.245 µM.

**Q.** What about the TGI [4] of the same compound?
**A.** Its TGI is > 100 µM.

**Q.** What about the TGI [5] of the same compound?
**A.** The TGI was > 38.8 µM.

**Q.** And the TGI [6]?
**A.** Its TGI is 30.9 µM.

**Q.** What about the TGI [7] of the same compound?
**A.** The TGI was > 100 µM.

**Q.** And the TGI [8]?
**A.** Its TGI is 34.3 µM.

**Q.** What about the TGI [9] of the same compound?
**A.** The TGI was > 61.5 µM.

**Q.** How did the TGI [1] turn out when COc1cc2[nH]c(-c3ccccc3)cc(=O)c2c(OC)c1OC was run?
**A.** The TGI was > 100 µM.

**Q.** What about the TGI [2] of the same compound?
**A.** Its TGI is > 100 µM.

**Q.** And the TGI [3]?
**A.** Its TGI is > 100 µM.

**Q.** And the TGI [4]?
**A.** The TGI was > 100 µM.

**Q.** And the TGI [5]?
**A.** The TGI was > 100 µM.

**Q.** And the TGI [6]?
**A.** Its TGI is > 100 µM.

**Q.** What about the TGI [7] of the same compound?
**A.** The TGI was > 100 µM.

**Q.** And the TGI [8]?
**A.** The TGI was > 100 µM.

**Q.** And the TGI [9]?
**A.** The TGI was > 100 µM.

**Q.** COc1cc(/C=C2\CCC(C)/C(=C\c3cc(OC)c(OC)c(OC)c3)C2=O)cc(OC)c1OC (stereo unspecified) was tested. Which TGI [1] did it give?
**A.** The TGI was 14 µM.

**Q.** And the TGI [2]?
**A.** Its TGI is 6.58 µM.

**Q.** What about the TGI [10] of the same compound?
**A.** The TGI was > 100 µM.

**Q.** And the TGI [5]?
**A.** Its TGI is > 100 µM.

**Q.** And the TGI [6]?
**A.** Its TGI is 19.2 µM.

**Q.** And the TGI [8]?
**A.** The TGI was > 100 µM.

**Q.** What about the TGI [9] of the same compound?
**A.** The TGI was 13.1 µM.

**Q.** What does the source list for CCN(CCCl)c1cc(CN(C)C)cc(NC(=O)c2ccc(C(=O)Nc3cccc(CN(C)C)c3)cc2)c1?
**A.** TGI [1]: 9.94 µM; TGI [2]: 10 µM; TGI [10]: 3.66 µM; TGI [3]: 3.05 µM; TGI [4]: 0.904 µM; TGI [5]: 2.35 µM; TGI [6]: 10.6 µM; TGI [8]: 76.3 µM; TGI [9]: 10.7 µM
